Source: patent publication US20250352590A1, “Functional postbiotic composition for homeostatic vaginal care” (Seed Health Inc., priority 2024, published 2025)

Assays:
[1] = test system: EpiVaginal (VEC-100) 3-D tissues; test: Barrier integrity by transepithelial electrical resistance (TEER) in EpiVaginal tissues; format: cell-based; details: 24 hr exposure; for TEER avg. (% of VC): tissues in triplicate, normalized to average TEER of vehicle control VC
Procedure: (§1) EpiVaginal (VEC-100) 3-D tissues, produced by MatTek Corporation, were used to evaluate eight test conditions plus a positive control known to have negative effects on tissue viability and barrier function (nonoxynol-9); the conditions tested are given in Table 3 below. Barrier integrity was measured at baseline, and tissues were treated in triplicate with test articles for 24 hours. Three tissues were left untreated to serve as negative control (NC); three tissues were treated with 4% nonoxynol-9 to serve as positive control (PC); and three tissues were dosed with media to serve as vehicle control (VC). At the end of 24 hr exposure to the test articles, barrier integrity was measured using transepithelial electrical resistance (TEER) and two tissues were used to assess tissue viability with the MTT assay. From each treatment group, one tissue was fixed in 10% formalin and processed for H&E staining for histological analysis.
Throughout this Example and Example 8 below, “VS-01” refers to a consortium of three Lactobacillus crispatus strains: LUCA011 (ATCC Accession Deposit No. PTA-127214) at a concentration of 3.70·10^10 CFU/g, LUCA009 (ATCC Accession Deposit No. PTA-127213) at a concentration of 8.60·10^9 CFU/g, and LUCA103 (ATCC Accession Deposit No. PTA-127218) at a concentration of 2.50·10^10 CFU/g. A stock of 10^6 CFU/mL of the combined strains was used for testing. A comparator strain, L. crispatus ATCC 33197, was sourced from the American Type Culture Collection, and it was determined by bioinformatic analysis that the genome of this strain had between 99.0% and 99.2% average nucleotide identity (ANI) with each of the three VS-01 strains.
The concentration of VS-01 most relevant to in vivo exposure in the VEC-100 model (10^6 CFU/mL) was determined using two different approaches: (1) Comparison of the exposure per unit area of vaginal surface area between VS-01 in vivo and VS-01 in the VEC-100 model. As known from the literature, the average surface area of the human vagina ranges from 65.73 to 107.07 cm^2 with a mean of 87.46 cm^2 and a standard deviation of 7.80 cm^2. If an 850 mg tablet as described in Example 3 instantaneously dissolved, the estimated coverage would be 9.7 mg/cm^2 (850 mg/87.46 cm^2). This most closely corresponds to a 1:100 dilution of the tablet and can be considered an upper bound, given that the tablet dissolves slowly over a 24-hour period. (2)
Comparison of the ratio of L. crispatus cells to vaginal epithelial cells in vivo and in the VEC-100 model. […] The Mattek model contains between about 350,000 and about 500,000 cells at a depth of three to five layers. If 100,000 epithelial cells are exposed at the surface, exposure to 10^6 bacterial cells produces a reasonable estimate of a 10:1 bacterial cell/epithelial cell ratio.
An estimate of the concentration of D-lactate most relevant to in vivo exposure was obtained considering tablet dissolution kinetics. Tablets as described in Example 3 are slow-release formulations, dissolving over the course of […]. The volume of cervicovaginal fluid (CVF) present in the vagina is variable, ranging from about 1 mL to about 4 mL, with a discharge rate of about 2 mL to about 5 mL over 24 hours; thus, the dissolution rate of a tablet as described in Example 3 would be about 71 mg/hour. D-lactate concentrations of tablets as described in Example 3 range from about 34 mg/tablet to about 44 mg/tablet. Estimating that 8.4% of an 850 mg tablet dissolves per hour (71 mg/hour divided by 850 mg/tablet) gives an estimated in vivo D-lactate concentration range of 31.7 mM to 40.44 mM D-lactate. Therefore, testing 10 mM and 100 mM D-lactate in this Example covers the physiological range of estimated exposure given the expected variability in the exact concentration of D-lactate per tablet. […]

[2] = test system: EpiVaginal (VEC-100) 3-D tissues; test: Tissue viability by MTT assay in EpiVaginal tissues; format: cell-based; details: 24 hr exposure
Procedure: as §1

Row | Molecule | Barrier integrity / TEER, result in words [1] | TEER avg. (% of VC) [1] | Cytotoxicity / tissue viability (MTT), result in words [2] | TEER vs NC ([1]; relative to untreated negative control NC) [%] | TEER vs VC ([1]; relative to vehicle control VC) [%]
1 | C[C@@H](O)C(=O)O [D-lactate] | did not result in significant improvements in TEER over VC |  |  |  | 
2 | C[C@@H](O)C(=O)O [TA6, D-lactate] |  | 128.4 % of VC |  |  | 
3 | C[C@@H](O)C(=O)O [TA7, D-lactate] |  | 114.8 % of VC |  |  | 
4 | nonoxynol-9 [PC] | barrier disruption | 0.6 % of VC | severe cytotoxicity | 0.2 | 0.6
